Results as given in patent US8933075B2, “Compounds useful as antiviral agents, compositions, and methods of use” (priority 2010, dated 2015).

What was measured:
[1] = system: A/Udorn/72 (H3N2) virus; experiment: Plaque assay in MDCK cells: EC50 by reduction of plaque number; format: cell-based, influenza virus; details: MDCK
[2] = system: pseudoHIV particles; experiment: HIV pseudovirus assay in X4 cells (luciferase); format: cell-based, HIV-1; details: Human immunodeficiency virus 1, read-out: HIV EC50
Method: A plasmid coding the HIV-1 genome, deleting the envelope protein gene and with a luciferase gene inserted, and a plasmid coding the envelope protein gene were cotransfected into 293T cells. After 48 hr, the supernatant containing pseudoHlV particles was collected for transducing assay. In 96 well plates, X4 cells were plated and incubated till confluent. The pseudoHlV particles were incubated with various concentrations of inhibitor compounds for one hour in room temperature. The particles were then used for tranducing X4 cells. The transduced X4 cells were lysed after 48 hr and the luciferase activity was measured in a luminometer.

SMILES: COc1cc(OC)cc(-c2cc(CCCOC(=O)[C@H](CC(N)=O)NC(=O)OC(C)(C)C)c(/C=C3\SC(=S)N(C4CC5CCC4C5)C3=O)o2)c1 (stereo partly drawn) [Compound 138]
- EC50 [1]: < 100 nM
- EC50 [2]: < 100 nM

SMILES: COC(=O)c1cc(-c2ccc(/C=C3\SC(=S)N(C4CC5CCC4C5)C3=O)o2)cc(OC)c1OC (stereo not drawn) [Compound 31]
- EC50 [1]: < 100 nM
- EC50 [2]: < 100 nM

SMILES: COc1cc(O)cc(-c2ccc(/C=C3\SC(=S)N(C4CC5CCC4C5)C3=O)o2)c1 (stereo not drawn) [Compound 17]
- EC50 [1]: < 100 nM
- EC50 [2]: < 100 nM

SMILES: COc1cc(OC)cc(-c2cc(CCCn3nnc(CO)c3CO)c(/C=C3\SC(=S)N(C4CC5CCC4C5)C3=O)o2)c1 (stereo not drawn) [Compound 200, (Z)-3-(bicyclo[2.2.1]heptan-2-yl)-5-((3-(3-(4′,5′-bis(hydroxymethyl)-1H-1′,2′,3′-triazol-1-yl)propyl)-5-(3′,5′-dimethoxyphenyl)furan-2-yl)methylene)-2-thioxothiazolidin-4-one]
- EC50 [1]: < 100 nM
- EC50 [2]: < 100 nM

SMILES: NCCCc1cc(-c2ccc(Cl)cc2)oc1/C=C1\SC(=S)N(C2CC3CCC2C3)C1=O (stereo not drawn) [Compound 124]
- EC50 [1]: < 100 nM
- EC50 [2]: < 100 nM

SMILES: COc1cc(OCC(=O)O)cc(-c2ccc(/C=C3\SC(=S)N(C4CC5CCC4C5)C3=O)o2)c1 (stereo not drawn) [Compound 37]
- EC50 [1]: < 100 nM
- EC50 [2]: < 100 nM

SMILES: COc1ccc(-c2ccc(/C=C3\SC(=S)N(C4C5CC6CC(C5)CC4C6)C3=O)o2)cc1OCC(=O)O (stereo not drawn) [Compound 33]
- EC50 [1]: < 100 nM
- EC50 [2]: < 100 nM

SMILES: CCOC(=O)COc1cc(-c2ccc(/C=C3\SC(=S)N(C4C5CC6CC(C5)CC4C6)C3=O)o2)cc(OC)c1OC (stereo not drawn) [Compound 30]
- EC50 [1]: < 100 nM
- EC50 [2]: < 100 nM

SMILES: COc1cc(OC)cc(-c2cc(CCCN)c(/C=C3\SC(=S)N(C4CC5CCC4C5)C3=O)o2)c1 (stereo not drawn) [Compound 120]
- EC50 [1]: < 100 nM
- EC50 [2]: < 100 nM

SMILES: COc1cc(O)cc(-c2cc(CCCO)c(/C=C3\SC(=S)N(C4C5CC6CC(C5)CC4C6)C3=O)o2)c1 (stereo not drawn) [Compound 102]
- EC50 [1]: < 100 nM
- EC50 [2]: < 100 nM

SMILES: O=C1/C(=C/c2oc(-c3ccc(Cl)cc3)cc2CCCN2CCNCC2)SC(=S)N1C1CC2CCC1C2 (stereo not drawn) [Compound 186]
- EC50 [1]: < 100 nM
- EC50 [2]: < 100 nM

SMILES: CCOC(=O)COc1cc(-c2ccc(/C=C3\SC(=S)N(C4C5CC6CC(C5)CC4C6)C3=O)o2)ccc1OC (stereo not drawn) [Compound 21]
- EC50 [1]: < 100 nM
- EC50 [2]: < 100 nM

SMILES: COc1ccc(-c2ccc(/C=C3\SC(=S)N(C4CC5CCC4C5)C3=O)o2)cc1C(=O)N[C@@H](Cc1ccc(O)cc1)C(=O)O (stereo partly drawn) [Compound 86]
- EC50 [1]: < 100 nM
- EC50 [2]: < 100 nM

SMILES: COc1cc(OC)cc(-c2cc(CCCn3nnc(CO)c3CO)c(/C=C3\SC(=S)N(C4C5CC6CC(C5)CC4C6)C3=O)o2)c1 (stereo not drawn) [Compound 201, (Z)-3-(adamantan-2-yl)-5-((3-(3-(4′,5′-bis(hydroxymethyl)-1H-1′,2′,3′-triazol-1-yl)propyl)-5-(3′,5′-dimetho-xyphenyl)furan-2-yl)methylene)-2-thioxothiazolidin-4-one]
- EC50 [1]: < 100 nM
- EC50 [2]: < 100 nM

SMILES: O=C1/C(=C/c2oc(-c3ccc(F)cc3)cc2CCCO)SC(=S)N1C1C2CC3CC(C2)CC1C3 (stereo not drawn) [Compound 103]
- EC50 [1]: < 100 nM
- EC50 [2]: < 100 nM

SMILES: COc1cc(OCC(=O)N2CCC[C@H]2C(=O)O)cc(-c2ccc(/C=C3\SC(=S)N(C4CC5CCC4C5)C3=O)o2)c1 (stereo partly drawn) [Compound 84]
- EC50 [1]: < 100 nM
- EC50 [2]: < 100 nM

SMILES: CCOC(=O)COc1cc(-c2ccc(/C=C3\SC(=S)N(C4CC5CCC4C5)C3=O)o2)cc(OC)c1OC (stereo not drawn) [Compound 29]
- EC50 [1]: < 100 nM
- EC50 [2]: < 100 nM

SMILES: O=C1/C(=C/c2oc(-c3ccc(F)cc3)cc2CCCO)SC(=S)N1C1CC2CCC1C2 (stereo not drawn) [Compound 104]
- EC50 [1]: < 100 nM
- EC50 [2]: < 100 nM

SMILES: COc1cc(O)cc(-c2cc(CCCN)c(/C=C3\SC(=S)N(C4CC5CCC4C5)C3=O)o2)c1 (stereo not drawn) [Compound 122]
- EC50 [1]: < 100 nM
- EC50 [2]: < 100 nM

SMILES: COc1cc(O)cc(-c2cc(CCCC(C(=O)O)C(=O)O)c(/C=C3\SC(=S)N(C4CC5CCC4C5)C3=O)o2)c1 (stereo not drawn) [Compound 137]
- EC50 [2]: < 100 nM
